Measured values published in PMC3877555 (Cell Death & Disease, 2013).

Biological target: HRas-GTP (Homo sapiens, UniProt P01112)
Assay: SPR
Format: binding

Sequence of HRas-GTP (P01112 1-186): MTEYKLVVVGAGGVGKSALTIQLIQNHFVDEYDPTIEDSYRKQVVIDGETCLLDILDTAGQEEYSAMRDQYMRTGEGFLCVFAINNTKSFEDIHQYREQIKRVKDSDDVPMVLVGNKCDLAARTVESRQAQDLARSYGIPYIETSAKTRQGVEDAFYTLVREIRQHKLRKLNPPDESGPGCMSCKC

Work on `C[C@@]12C3=CC(=O)OCC3=C[C@H]3OC(=O)[C@](C)([C@H]31)[C@@H](O)[C@H]1O[C@H]12` [WA, Wentilactone A] yielded a Kd of 15.7 µM.
